In patent US12522602B2, “Derivatives having 2,3-dihydro-1H-indene or 2,3-dihydrobenzofuran moiety or pharmaceutically acceptable salt thereof and pharmaceutical compositions comprising the same” (YUHAN CORPORATION, priority 2019, dated 2026):

System: GM1 production in Jurkat cells
Assay: cells
Type: cell-based
Details: Homo sapiens, Jurkat, 72 h

`COc1cc(OC)cc(-c2cc3c(cc2OC)C(NC(=O)O[C@@H]2CN4CCC2CC4)C(C)(C)C3)c1` (stereo partly drawn) [Example 345, (S)-quinuclidin-3-yl (5-(3,5-dimethoxyphenyl)-6-methoxy-2,2-dimethyl-2,3-dihydro-1H-inden-1-yl)carbamate] and `COc1ccc(-c2cc3c(cc2OC)C(NC(=O)O[C@@H]2CN4CCC2CC4)C(C)(C)C3)c(Cl)c1` (stereo partly drawn) [Example 346, (S)-quinuclidin-3-yl (5-(2-chloro-4-methoxyphenyl)-6-methoxy-2,2-dimethyl-2,3-dihydro-1H-inden-1-yl)carbamate] are within 1.5-fold of each other in IC50: 0.0457 µM for the first, 0.0383 µM for the second.

Going from `CCOc1ccc(-c2cc3c(cc2OC)C(NC(=O)O[C@@H]2CN4CCC2CC4)C(C)(C)C3)cc1F` (stereo partly drawn) [Example 347, (S)-quinuclidin-3-yl (5-(4-ethoxy-3-fluorophenyl)-6-methoxy-2,2-dimethyl-2,3-dihydro-1H-inden-1-yl)carbamate] to `COc1ccc(Cl)cc1-c1cc2c(cc1F)C(NC(=O)O[C@@H]1CN3CCC1CC3)C(C)(C)C2` (stereo partly drawn) [Example 364, (S)-quinuclidin-3-yl (5-(5-chloro-2-methoxyphenyl)-6-fluoro-2,2-dimethyl-2,3-dihydro-1H-inden-1-yl)carbamate], the IC50 falls from 0.0468 µM to 0.0172 µM (2.7-fold). The second is the more potent here.

Going from `COc1cc2c(cc1-c1cc(C)c(OC(C)C)c(C)c1)CC(C)(C)C2NC(=O)O[C@@H]1CN2CCC1CC2` (stereo partly drawn) [Example 348, (S)-quinuclidin-3-yl (5-(4-isopropoxy-3,5-dimethylphenyl)-6-methoxy-2,2-dimethyl-2,3-dihydro-1H-inden-1-yl)carbamate] to `COc1c(C)cc(-c2cc3c(cc2F)C(NC(=O)O[C@@H]2CN4CCC2CC4)C(C)(C)C3)cc1C` (stereo partly drawn) [Example 366, (S)-quinuclidin-3-yl (6-fluoro-5-(4-methoxy-3,5-dimethylphenyl)-2,2-dimethyl-2,3-dihydro-1H-inden-1-yl)carbamate], the IC50 rises from 0.0441 µM to 0.0794 µM (1.8-fold).

First: CCc1ccc(-c2cc3c(cc2F)C(NC(=O)O[C@@H]2CN4CCC2CC4)C(C)(C)C3)cc1 (stereo partly drawn) [Example 349, (S)-quinuclidin-3-yl (5-(4-ethylphenyl)-6-fluoro-2,2-dimethyl-2,3-dihydro-1H-inden-1-yl)carbamate]
Second: CCCc1ccc(-c2cc3c(cc2F)C(NC(=O)O[C@@H]2CN4CCC2CC4)C(C)(C)C3)cc1 (stereo partly drawn) [Example 350, (S)-quinuclidin-3-yl (6-fluoro-2,2-dimethyl-5-(4-propylphenyl)-2,3-dihydro-1H-inden-1-yl)carbamate]
The IC50 of the first is 2.3-fold higher: 0.0103 µM for the first, 0.0045 µM for the second. The second is the more potent here.

`CC(C)c1ccc(-c2cc3c(cc2F)C(NC(=O)O[C@@H]2CN4CCC2CC4)C(C)(C)C3)cc1` (stereo partly drawn) [Example 351, (S)-quinuclidin-3-yl (6-fluoro-5-(4-isopropylphenyl)-2,2-dimethyl-2,3-dihydro-1H-inden-1-yl)carbamate] and `CC(C)Cc1ccc(-c2cc3c(cc2F)C(NC(=O)O[C@@H]2CN4CCC2CC4)C(C)(C)C3)cc1` (stereo partly drawn) [Example 352, (S)-quinuclidin-3-yl (6-fluoro-5-(4-isobutylphenyl)-2,2-dimethyl-2,3-dihydro-1H-inden-1-yl)carbamate] are within 1.5-fold of each other in IC50: 0.0074 µM for the first, 0.0057 µM for the second.

Compared with `CC(C)(C)c1ccc(-c2cc3c(cc2F)C(NC(=O)O[C@@H]2CN4CCC2CC4)C(C)(C)C3)cc1` (stereo partly drawn) [Example 353, (S)-quinuclidin-3-yl (5-(4-(tert-butyl)phenyl)-6-fluoro-2,2-dimethyl-2,3-dihydro-1H-inden-1-yl)carbamate], `CC(C)(C)c1cccc(-c2cc3c(cc2F)C(NC(=O)O[C@@H]2CN4CCC2CC4)C(C)(C)C3)c1` (stereo partly drawn) [Example 374, (S)-quinuclidin-3-yl (5-(3-(tert-butyl)phenyl)-6-fluoro-2,2-dimethyl-2,3-dihydro-1H-inden-1-yl)carbamate] is 2.1-fold higher in IC50: 0.0127 µM for the first, 0.0265 µM for the second. The first is the more potent here.

First: CC1(C)Cc2cc(-c3ccc(C4CC4)cc3)c(F)cc2C1NC(=O)O[C@@H]1CN2CCC1CC2 (stereo partly drawn) [Example 354, (S)-quinuclidin-3-yl (5-(4-cyclopropylphenyl)-6-fluoro-2,2-dimethyl-2,3-dihydro-1H-inden-1-yl)carbamate]
Second: COc1ccc(-c2cc3c(cc2F)C(NC(=O)O[C@@H]2CN4CCC2CC4)C(C)(C)C3)cc1 (stereo partly drawn) [Example 355, (S)-quinuclidin-3-yl (6-fluoro-5-(4-methoxyphenyl)-2,2-dimethyl-2,3-dihydro-1H-inden-1-yl)carbamate]
The IC50 of the first is 11-fold lower: 0.0059 µM for the first, 0.0628 µM for the second.

Going from `CCOc1ccc(-c2cc3c(cc2F)C(NC(=O)O[C@@H]2CN4CCC2CC4)C(C)(C)C3)cc1` (stereo partly drawn) [Example 356, (S)-quinuclidin-3-yl (5-(4-ethoxyphenyl)-6-fluoro-2,2-dimethyl-2,3-dihydro-1H-inden-1-yl)carbamate] to `CCCOc1ccc(-c2cc3c(cc2F)C(NC(=O)O[C@@H]2CN4CCC2CC4)C(C)(C)C3)cc1` (stereo partly drawn) [Example 357, (S)-quinuclidin-3-yl (6-fluoro-2,2-dimethyl-5-(4-propoxyphenyl)-2,3-dihydro-1H-inden-1-yl)carbamate], the IC50 falls from 0.0216 µM to 0.0053 µM (4.1-fold). The second is the more potent here.

First: CC(C)Oc1ccc(-c2cc3c(cc2F)C(NC(=O)O[C@@H]2CN4CCC2CC4)C(C)(C)C3)cc1 (stereo partly drawn) [Example 358, (S)-quinuclidin-3-yl (6-fluoro-5-(4-isopropoxyphenyl)-2,2-dimethyl-2,3-dihydro-1H-inden-1-yl)carbamate]
Second: CC(C)COc1ccc(-c2cc3c(cc2F)C(NC(=O)O[C@@H]2CN4CCC2CC4)C(C)(C)C3)cc1 (stereo partly drawn) [Example 362, (S)-quinuclidin-3-yl (6-fluoro-5-(4-isobutoxyphenyl)-2,2-dimethyl-2,3-dihydro-1H-inden-1-yl)carbamate]
The IC50 of the first is 3.1-fold higher: 0.0077 µM for the first, 0.0025 µM for the second.

First: CC(C)Oc1ccc(-c2cc3c(cc2F)C(NC(=O)O[C@@H]2CN4CCC2CC4)C(C)(C)C3)cc1Cl (stereo partly drawn) [Example 359, (S)-quinuclidin-3-yl (5-(3-chloro-4-isopropoxyphenyl)-6-fluoro-2,2-dimethyl-2,3-dihydro-1H-inden-1-yl)carbamate]
Second: CC(C)Oc1cccc(-c2cc3c(cc2F)C(NC(=O)O[C@@H]2CN4CCC2CC4)C(C)(C)C3)c1 (stereo partly drawn) [Example 378, (S)-quinuclidin-3-yl (6-fluoro-5-(3-isopropoxyphenyl)-2,2-dimethyl-2,3-dihydro-1H-inden-1-yl)carbamate]
The IC50 of the first is 2.6-fold lower: 0.0331 µM for the first, 0.0875 µM for the second.

First: COc1ccc(-c2cc3c(cc2F)C(NC(=O)O[C@@H]2CN4CCC2CC4)C(C)(C)C3)c(F)c1 (stereo partly drawn) [Example 360, (S)-quinuclidin-3-yl (6-fluoro-5-(2-fluoro-4-methoxyphenyl)-2,2-dimethyl-2,3-dihydro-1H-inden-1-yl)carbamate]
Second: COc1cccc(-c2cc3c(cc2F)C(NC(=O)O[C@@H]2CN4CCC2CC4)C(C)(C)C3)c1 (stereo partly drawn) [Example 375, (S)-quinuclidin-3-yl (6-fluoro-5-(3-methoxyphenyl)-2,2-dimethyl-2,3-dihydro-1H-inden-1-yl)carbamate]
The IC50 of the first is 1.7-fold higher: 0.039 µM for the first, 0.023 µM for the second.

Compared with `CCCCOc1ccc(-c2cc3c(cc2F)C(NC(=O)O[C@@H]2CN4CCC2CC4)C(C)(C)C3)cc1` (stereo partly drawn) [Example 361, (S)-quinuclidin-3-yl (5-(4-butoxyphenyl)-6-fluoro-2,2-dimethyl-2,3-dihydro-1H-inden-1-yl)carbamate], `CCCCOc1cccc(-c2cc3c(cc2F)C(NC(=O)O[C@@H]2CN4CCC2CC4)C(C)(C)C3)c1` (stereo partly drawn) [Example 379, (S)-quinuclidin-3-yl (5-(3-butoxyphenyl)-6-fluoro-2,2-dimethyl-2,3-dihydro-1H-inden-1-yl)carbamate] is 7.5-fold higher in IC50: 0.0021 µM for the first, 0.0158 µM for the second. The first is the more potent here.

Going from `CC1(C)Cc2cc(-c3ccc(OCC4CC4)nc3)c(F)cc2C1NC(=O)O[C@@H]1CN2CCC1CC2` (stereo partly drawn) [Example 363, (S)-quinuclidin-3-yl (5-(6-(cyclopropylmethoxy)pyridin-3-yl)-6-fluoro-2,2-dimethyl-2,3-dihydro-1H-inden-1-yl)carbamate] to `COc1cc(-c2cc3c(cc2F)C(NC(=O)O[C@@H]2CN4CCC2CC4)C(C)(C)C3)ccn1` (stereo partly drawn) [Example 369, (S)-quinuclidin-3-yl (6-fluoro-5-(2-methoxypyridin-4-yl)-2,2-dimethyl-2,3-dihydro-1H-inden-1-yl)carbamate], the IC50 rises from 0.0087 µM to 0.172 µM (20-fold).

First: CCCCc1ccc(-c2cc3c(cc2F)C(NC(=O)O[C@@H]2CN4CCC2CC4)C(C)(C)C3)cc1 (stereo partly drawn) [Example 365, (S)-quinuclidin-3-yl (5-(4-butylphenyl)-6-fluoro-2,2-dimethyl-2,3-dihydro-1H-inden-1-yl)carbamate]
Second: CCc1cccc(-c2cc3c(cc2F)C(NC(=O)O[C@@H]2CN4CCC2CC4)C(C)(C)C3)c1 (stereo partly drawn) [Example 371, (S)-quinuclidin-3-yl (5-(3-ethylphenyl)-6-fluoro-2,2-dimethyl-2,3-dihydro-1H-inden-1-yl)carbamate]
The IC50 of the first is 10-fold lower: 0.0024 µM for the first, 0.0248 µM for the second.

Compared with `CCOc1c(C)cc(-c2cc3c(cc2F)C(NC(=O)O[C@@H]2CN4CCC2CC4)C(C)(C)C3)cc1C` (stereo partly drawn) [Example 367, (S)-quinuclidin-3-yl (5-(4-ethoxy-3,5-dimethylphenyl)-6-fluoro-2,2-dimethyl-2,3-dihydro-1H-inden-1-yl)carbamate], `CCCCOc1c(C)cc(-c2cc3c(cc2F)C(NC(=O)O[C@@H]2CN4CCC2CC4)C(C)(C)C3)cc1C` (stereo partly drawn) [Example 368, (S)-quinuclidin-3-yl (5-(4-butoxy-3,5-dimethylphenyl)-6-fluoro-2,2-dimethyl-2,3-dihydro-1H-inden-1-yl)carbamate] is 3-fold lower in IC50: 0.0682 µM for the first, 0.0229 µM for the second. The second is the more potent here.

`CC1(C)Cc2cc(-c3cccc(F)c3)c(F)cc2C1NC(=O)O[C@@H]1CN2CCC1CC2` (stereo partly drawn) [Example 370, (S)-quinuclidin-3-yl (6-fluoro-5-(3-fluorophenyl)-2,2-dimethyl-2,3-dihydro-1H-inden-1-yl)carbamate] and `CC(C)c1cccc(-c2cc3c(cc2F)C(NC(=O)O[C@@H]2CN4CCC2CC4)C(C)(C)C3)c1` (stereo partly drawn) [Example 373, (S)-quinuclidin-3-yl (6-fluoro-5-(3-isopropylphenyl)-2,2-dimethyl-2,3-dihydro-1H-inden-1-yl)carbamate] are within 1.5-fold of each other in IC50: 0.0393 µM for the first, 0.0312 µM for the second.

`CC(C)Cc1cccc(-c2cc3c(cc2F)C(NC(=O)O[C@@H]2CN4CCC2CC4)C(C)(C)C3)c1` (stereo partly drawn) [Example 372, (S)-quinuclidin-3-yl (6-fluoro-5-(3-isobutylphenyl)-2,2-dimethyl-2,3-dihydro-1H-inden-1-yl)carbamate] and `CCCOc1cccc(-c2cc3c(cc2F)C(NC(=O)O[C@@H]2CN4CCC2CC4)C(C)(C)C3)c1` (stereo partly drawn) [Example 377, (S)-quinuclidin-3-yl (6-fluoro-2,2-dimethyl-5-(3-propoxyphenyl)-2,3-dihydro-1H-inden-1-yl)carbamate] are within 1.5-fold of each other in IC50: 0.0462 µM for the first, 0.0355 µM for the second.
